Experimental data from patent US4794113A, “Imidazolyl phenoxy compounds and method of use” (Yamanouchi Pharmaceutical Co., Ltd., priority 1983, dated 1988).

Assays:
Hyperlipedemic rat = experiment: Lipid Reducing Activity (cholesterol/bile acid fed hyperlipidemic rats, serum lipids); type: in vivo, male Sprague-Dawley rats; conditions: 100 mg/kg/day p.o., 4 days; for HDL-C/LDL-C (cont. = 1): relative to control; for HDL-Chol** (cont. = 1): relative to control = 1
Method: Feed containing 1.5% cholesterol and 0.5% bile acid was given to male Sprague-Dawley rats aging 4 weeks old after birth for 7 days. A suspension of the compound of the present invention in a 0.5% aqueous methyl cellulose solution was administered daily via oral catheter for 4 days. After fastening overnight, blood was collected under ether anesthesia to determine the quantities of the total HDL and cholesterol in serum. The measurements of cholesterol and HDL were performed in accordance with the method described in Schettler, G. & Hussel; Arbetsmed. Sozialmed. Praventived., 10, 25 (1975) and the method described in T. T. Ishikawa et al.; Lipids, 11, 628 (1976), respectively.

[1] = system: platelet aggregation induced by arachidonic acid; experiment: Platelet Aggregation Prevention Activity (arachidonic acid induced, platelet rich plasma); type: cell-based, Nippon white rabbit; conditions: compound 100 μM; arachidonic acid final concentration 0.2 mM; rabbit PRP
Method: Platelet rich plasma (PRP) and platelet poor plasma (PPP) were prepared from venous blood of Nippon white rabbit. The platelet aggregation activity was measured in accordance with the method described in Born, G. V. R.; Nature, 194, 927 (1962) and the activity of preventing platelet agglutination of the compound against platelet aggregation induced by arachidonic acid (final concentration, 0.2 mM) was determined with an Aggrigometer (made by Payton Co.).

Structure (SMILES) | Reduction Rate of T* and Chol** (*triglyceride, **cholesterol) (Hyperlipedemic rat) | HDL-C/LDL-C (cont. = 1) (Hyperlipedemic rat) | HDL-Chol** (cont. = 1) (Hyperlipedemic rat) | Platelet Aggregation inhibition (%) A.A. [1]
CCOC(=O)C(C)(C)CCCCCOc1ccc(NC(=O)CCCCn2ccnc2)cc1 [Example 39] | 23% | 4.1 | 3.11 | 100%
CCOC(=O)C(C)(C)CCCOc1ccc(-c2csc(C)n2)cc1 [Example 5, ethyl 5-[p-(2-methyl-4-thiazolyl)phenoxy]-2,2-dimethylpentanoate] | 69% | 8.00 | 1.54 | 50%
CCOC(=O)C(C)(C)CCCCCOc1ccc(-c2csc(-c3cccnc3)n2)cc1 [Example 2, ethyl 2,2-dimethyl-7-[p-[2-(3-pyridyl)-4-thiazolyl]phenoxy]heptanoate] | 59% | 22 | 7.62 | 16%
CCOC(=O)C(C)(C)CCCCOc1ccc(NC(=O)CCCn2ccnc2)cc1 [Example 35, Ethyl-6-[p-[4-(1-imidazolyl)-butyramido]phenoxy]-2,2-dimethylhexanoate] | 52% | 5.4 | 2.49 | 7%
CCOC(=O)C(C)(C)CCCCOc1ccc(OCCCCCn2ccnc2)cc1 [Example 30, ethyl 6-[p-[5-(1-imidazolyl)pentyloxy]phenoxy]-2,2-dimethylhexanoate] | 48% | 5.00 | 1.78 | 57%
